Source: US20100144675A1, “Regulation of sGC Function by Corrin Derivatives” (priority 2007, published 2010)

Key:
[1] = target: T1, recombinant human α1/β1 sGC (Homo sapiens, UniProt Q02108+Q02153); assay: cGMP production by purified recombinant sGC (activation by tetrapyrroles); format: biochemical; conditions: for concentration at which sGC activation is maximal (dose response): dose response of corrins, FIG. 4C; for shift of EC50 of sGC activation in the combination: FIG. 4D/4E
T1 construct: made in house
T1 sequence (Q02108 1-690): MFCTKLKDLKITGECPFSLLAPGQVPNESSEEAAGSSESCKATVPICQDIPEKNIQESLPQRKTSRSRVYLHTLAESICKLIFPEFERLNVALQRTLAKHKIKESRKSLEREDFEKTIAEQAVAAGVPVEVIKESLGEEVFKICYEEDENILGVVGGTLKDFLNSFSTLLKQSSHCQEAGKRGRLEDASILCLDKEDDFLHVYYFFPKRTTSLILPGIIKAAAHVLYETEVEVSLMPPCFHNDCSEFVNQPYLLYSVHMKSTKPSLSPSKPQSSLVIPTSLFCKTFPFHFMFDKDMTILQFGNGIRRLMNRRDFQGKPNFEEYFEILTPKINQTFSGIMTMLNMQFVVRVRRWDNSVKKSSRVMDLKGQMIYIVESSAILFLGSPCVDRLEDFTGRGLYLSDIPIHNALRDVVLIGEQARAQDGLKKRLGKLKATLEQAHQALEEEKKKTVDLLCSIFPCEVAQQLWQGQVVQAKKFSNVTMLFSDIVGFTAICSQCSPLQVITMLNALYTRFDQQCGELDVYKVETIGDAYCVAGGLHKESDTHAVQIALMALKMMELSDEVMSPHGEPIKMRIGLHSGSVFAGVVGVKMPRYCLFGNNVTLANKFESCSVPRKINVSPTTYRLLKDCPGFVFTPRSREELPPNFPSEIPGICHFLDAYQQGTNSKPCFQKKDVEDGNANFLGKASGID
T1 sequence (Q02153 1-619): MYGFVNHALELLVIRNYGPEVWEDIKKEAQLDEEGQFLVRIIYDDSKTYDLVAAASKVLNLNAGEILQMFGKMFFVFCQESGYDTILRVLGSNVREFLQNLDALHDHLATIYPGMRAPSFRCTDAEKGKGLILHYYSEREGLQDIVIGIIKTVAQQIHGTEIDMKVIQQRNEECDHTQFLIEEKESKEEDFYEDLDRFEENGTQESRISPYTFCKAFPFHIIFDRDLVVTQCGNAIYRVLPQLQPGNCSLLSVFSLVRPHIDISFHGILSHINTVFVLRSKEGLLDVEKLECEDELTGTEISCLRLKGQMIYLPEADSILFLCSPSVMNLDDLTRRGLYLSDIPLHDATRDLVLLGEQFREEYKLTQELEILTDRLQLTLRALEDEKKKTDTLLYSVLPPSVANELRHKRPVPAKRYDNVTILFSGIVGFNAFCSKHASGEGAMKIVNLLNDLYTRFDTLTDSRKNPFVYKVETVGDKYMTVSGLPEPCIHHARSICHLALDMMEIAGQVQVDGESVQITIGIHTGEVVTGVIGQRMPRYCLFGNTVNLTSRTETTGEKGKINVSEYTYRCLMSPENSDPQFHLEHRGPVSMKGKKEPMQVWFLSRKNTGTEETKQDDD
Procedure: FIG. 4. Effect of tetrapyrroles on sGC activity in vitro. A. cGMP production by recombinant human α1/β1 sGC induced by 50 μM factor B, bilirubin, nitrite ionophore 1, uroporphyrin I, or protoporphyrin IX. B. cGMP production by recombinant human α1/β1 sGC induced by 50 μM factor B, bilirubin, nitrite ionophore 1, uroporphyrin I, or protoporphyrin IX alone or in the presence of 1 μM BAY41-2272 or HMR1766. C. cGMP production by recombinant al (31 sGC in response to increasing concentration of protoporphyrin, factor B, vitamin B12 and vitamin B12a. D. cGMP production by recombinant human al/131 sGC induced by various doses of factor B at various doses of BAY41-2272. E. cGMP production by recombinant human α1/β1 sGC induced by various doses of factor B at various doses of BAY41-2272.
Activation of purified sGC by various tetrapyrroles. […] Methods of recombinant expression and purification of human α1/β11 isoform of sGC have been developed^23, 24. Measurements of enzymatic activity and multiple spectral studies performed using this recombinant enzyme^10, 23, 25 indicate that these recombinant preparations have identical properties as the native enzyme. We tested a series of tetrapyrrole compounds (FIG. 3), which are structurally related to PPIX. Similar to PPIX, majority of the tested tetrapyrroles contain four pyrrole rings connected to form a microcycle. In the case of billirubin, however, the microcycle is interrupted. […] We then compared fB with vitamin B12 (cyanocobalamine) or its derivative B12a (aquacobalamine) and PPIX, all at 50 μM. […] HMR1766 was kindly provided by Sanofi-Avantis (see a letter attached).

[2] = test system: anesthetized rats; assay: Blood pressure (MAP) and cardiac output in instrumented anesthetized rats; format: in vivo, Sprague Dawley rats; conditions: for change in blood pressure after bolus: 500 μl bolus into abdominal aorta, fB at 5 and 15 mg/ml or 100 μg/kg BAY41-2272; for change in cardiac output after bolus: 500 μl bolus, data not shown
Procedure: FIG. 6. Effect of factor B and BAY41-2272 on mean arterial pressure (MAP) in instrumented anesthetized rats. Indicated amount of drugs were delivered as a 500 μl bolus through a catheter into the abdominal aorta and MAP were recorded as described in section D1.2. “Contr”—500 μl of saline,
Effect of factor B and BAY41-2272 on blood pressure of anesthetized rats. We also measured the effect of bolus application of fB on changes in hemodynamic parameters in anesthetized rats. Sprague Dawley rats were surgically implanted with a 10-MHz pulsed Doppler flow and a displacement probe around the ascending aorta and sutured to the left ventricular wall, respectively. A Tygon catheter was placed into the abdominal aorta via the femoral artery. After recovery the animals were anesthetized with halothane, intubated, and ventilated under isothermic conditions. Changes in systolic, diastolic, mean arterial pressures and cardiac output were recorded and processed with a multichannel-pulsed Doppler flow/dimension system and digitized (A/D converter). Before experimental treatments with fB and/or BAY41-2272 the animals were treated with a bolus of 30 μg/kg of sodium nitroprusside to confirm the integrity of the catheter and delivery system and the responsiveness of animals to drugs. After the baseline was established a 500 μl bolus of fB at 5 and 15 mg/ml or 100 μg/kg of BAY41-2272 (Alexis, San Diego, Calif., USA) was delivered and the changes in blood pressure (FIG. 6A). and cardiac output were recorded (data not shown).

[3] = test system: rat aortic rings; assay: cGMP levels in treated rat aortic rings; format: cell-based; conditions: 5 minutes incubation, 37° C., in combination with BAY 41-2272
Procedure: FIG. 7. Changes in cGMP levels in rat aortic rings. Aortic rings were incubated with saline or saline with factor B in the presence or absence of BAY 41-2272 for 5 minutes at 37° C. cGMP was extracted and quantified.
Changes in cGMP levels in isolated rat aorta treated with factor B and BAY 41-2272. In order to confirm that relaxation of blood vessels and decreased blood pressure in response to factor B is dependent on sGC activity we measured cGMP levels in treated aortic rings.

[4] = test system: rat aortic rings; assay: Relaxation of phenylephrine-preconstricted isolated rat aortic rings; format: cell-based, Sprague Dawley rats; conditions: for vascular relaxation of preconstricted aortic rings: 1 μM phenylephrine preconstriction, cumulative addition
Procedure: FIG. 5. Synergistic effect of corrin derivatives and BAY41-2272 on relaxation of rat aortic rings. The measurements were performed in the presence of corrin derivatives±BAY41-2272 as described in the text. Data are average of two aortic rings per each dose-response curve. Arrow indicates the shift in the effective dose and increased response.
FB-dependent relaxation of isolated rat aorta. In addition to in vitro analysis of sGC activity, we tested whether fB and vitamin B12 derivatives will induce relaxation of preconstricted rat aortic rings. The descending thoracic aorta was excised from freshly sacrificed Sprague Dawley rats, cleaned of adherent tissue and cut into 3-4 mm rings. Each ring was suspended between two wires hooks and mounted under 1 mN of passive tension in 4 ml organ chambers filled with Krebs' solution at 37° C., pH 7.4 and continuously aerated with 95% O2/5% CO2. The changes in isometric tension were measured by a force transducer (Grass Instruments, USA) connected to a PowerLab 400™ data-acquisition system (ADInstruments, Colorado Springs, Mass., USA). Ring preparations were equilibrated for 1 h before the start of the experiments. After the equilibration period, rings were preconstricted with 1 μM phenylephrine and maximal contractile response is determined. After maximal constriction the agonists (vitamin B12, methyl-B12, fB, BAY41-2272) were added cumulatively and changes in isometric tension determined. […] In the presence of a low dose of BAY41-2272 (0.1 μM) EC50 of fB decreased while the response increased.

[5] = test system: sGC; conditions: cited from earlier work
[6] = combination of BAY41-2272 and fB
[7] = fB together with 100 μg/kg BAY41-2272, FIG. 6B
[8] = in the presence of 0.1 μM BAY41-2272

C/C1=C2/[N-][C@H]([C@H](CC(N)=O)[C@@]2(C)CCC(=O)NC[C@@H](C)OP(=O)([O-])OC2C(O)[C@@H](n3cnc4cc(C)c(C)cc43)O[C@H]2CO)[C@]2(C)N=C(/C(C)=C3N=C(/C=C4N=C1[C@@H](CCC(N)=O)C\4(C)C)[C@@H](CCC(N)=O)[C@]\3(C)CC(N)=O)[C@@H](CCC(N)=O)[C@]2(C)CC(N)=O.O.[Co+2] (some centres unmarked) [vitamin B12a, aquacobalamine, reference compound]
concentration at which sGC activation is maximal (dose response) [1]: 50 µM

Nc1nc(-c2nn(Cc3ccccc3F)c3ncccc23)nc(N)c1N1CCOCC1 [BAY41-2272, reference compound]
MAP after administration ([2]; 100 μg/kg BAY41-2272 alone): stabilize their MAP at lower values | time lower MAP is maintained ([2]; 100 μg/kg BAY41-2272 alone): at least 30 minutes | change in blood pressure after bolus [2]: Transient decreased in blood pressure | change in cardiac output after bolus [2]: increased cardiac output | shift of EC50 of sGC activation in the combination [1, 6]: shifted the EC50 to lower concentrations

C/C1=C2/[N-]C([C@H](CC(N)=O)[C@@]2(C)CCC(=O)NCC(C)O)[C@]2(C)N=C(/C(C)=C3N=C(/C=C4N=C1[C@@H](CCC(N)=O)C\4(C)C)[C@@H](CCC(N)=O)[C@]\3(C)CC(N)=O)[C@@H](CCC(N)=O)[C@]2(C)CC(N)=O.[C-]#N.[C-]#N.[Co] (some centres unmarked) [factor B, dicyanocobinamide]
change in blood pressure after bolus [2]: Transient decreased in blood pressure | change in cardiac output after bolus [2]: increased cardiac output | baseline to which MAP was restored, versus BAY41-2272 alone ([2]; combined fB/BAY41-2272 treatment, FIG. 6B): even lower and more prolonged | amplitude of drop in blood pressure [2, 7]: enhanced the amplitude of BAY41-2272-induced drop in blood pressure | time of acutely decreased blood pressure [2, 7]: significantly prolonged | sGC activation in combination with HMR1766, FIG. 4B ([1]; 50 μM with 1 μM HMR1766): even more effective than PPIX/HMR1766 | sGC activation compared with vitamin B12, B12a and PPIX, FIG. 4B ([1]; all at 50 μM): effective activator of sGC | sGC activation by the combination (synergy) [1, 6]: synergistically enhanced the enzyme | shift of EC50 of sGC activation in the combination [1, 6]: shifted the EC50 to lower concentrations | concentration at which sGC activation is maximal (dose response) [1]: did not reach maximum in the tested range of concentrations | sGC activation (cGMP production), FIG. 4A ([1]; tetrapyrrole alone at 50 μM): significantly activated sGC | levels of cGMP in aortic rings [3]: increased | vascular relaxation of preconstricted aortic rings [4]: can induce vascular relaxation | EC50 of aortic ring relaxation [4, 8]: decreased | relaxation response [4, 8]: increased

cyanocobalamin [vitamin B12, reference compound]
concentration at which sGC activation is maximal (dose response) [1]: 50 µM | vascular relaxation of preconstricted aortic rings [4]: can induce vascular relaxation

[C-]#[O+] [CO, carbon monoxide]
cGMP produced compared to the resting enzyme ([5]; low-output state): 3-4 time

[N]=O [NO, nitric oxide]
increase in rate of cGMP production ([5]; high-output state): > 100 fold

C/C1=C2/[N-][C@H]([C@H](CC(N)=O)[C@@]2(C)CCC(=O)NC[C@H](C)OP(=O)([O-])O[C@H]2[C@@H](O)[C@@H](n3cnc4cc(C)c(C)cc43)O[C@@H]2CO)[C@]2(C)N=C(/C(C)=C3N=C(/C=C4N=C1[C@@H](CCC(N)=O)C\4(C)C)[C@@H](CCC(N)=O)[C@]\3(C)CC(N)=O)[C@@H](CCC(N)=O)[C@]2(C)CC(N)=O.[CH3-].[Co+3] [methyl-B12, methylcobalamin, reference compound]
vascular relaxation of preconstricted aortic rings [4]: can induce vascular relaxation
